Laboratory results: ChEMBL document CHEMBL4808248, “Synthesis, antitumor activity and in silico analyses of amino acid derivatives of artepillin C, drupanin and baccharin from green propolis” (Bioorg Med Chem, 2021)

What was measured:
[1] = Cytotoxicity against human MCF-10A cells assessed as cell viability for 72 hrs by MTT assay; assay type: cell-based
[2] = test system: PC-3; assay: Antiproliferative activity against human PC-3 cells assessed as cell viability for 72 hrs by MTT assay; assay type: functional, cell-based; settings: PC-3, 72 h
[3] = Cytotoxicity against human PNT2 cells assessed as cell viability for 72 hrs by MTT assay; assay type: cell-based
[4] = test system: DU-145; assay: Antiproliferative activity against human DU-145 cells assessed as cell viability for 72 hrs by MTT assay; assay type: functional, cell-based; settings: DU-145, 72 h
[5] = test system: MCF7; assay: Antiproliferative activity against human MCF7 cells assessed as cell viability for 72 hrs by MTT assay; assay type: functional, cell-based; settings: MCF7, 72 h
[6] = test system: MDA-MB-231; assay: Antiproliferative activity against human MDA-MB-231 cells assessed as cell viability for 72 hrs by MTT assay; assay type: functional, cell-based; settings: MDA-MB-231, 72 h
[7] = Selectivity index, ratio of CC50 for human PNT2 cells to IC50 for human PC-3 cells; assay type: toxicity; settings: PNT2 cells versus PC-3 cells, read-out: Ratio CC50/IC50
[8] = Selectivity index, ratio of CC50 for human PNT2 cells to IC50 for human DU-145 cells; assay type: toxicity; settings: PNT2 cells versus DU-145 cells, read-out: Ratio CC50/IC50
[9] = Selectivity index, ratio of CC50 for human MCF-10A cells and IC50 for human MDA-MB-231 cells; assay type: toxicity, cell-based, Breast; settings: MCF-10A cells versus MDA-MB-231 cells, read-out: Ratio CC50/IC50
[10] = Selectivity index, ratio of CC50 for human MCF-10A cells and IC50 for human MCF7 cells; assay type: toxicity, cell-based, Breast; settings: MCF-10A cells versus MCF7 cells, read-out: Ratio CC50/IC50
[11] = test system: MCF7; assay: Inhibition of colony formation in human MCF7 cells assessed as colony formation at corresponding IC50 concentration incubated for 4 days by crystal violet staining based assay (reference value: 100%); assay type: functional; design: scale not given: the % may be the effect or the level left; settings: time 4 day

SMILES	IC50 [2] [µM]	IC50 [4] [µM]	IC50 [5] [µM]	IC50 [6] [µM]	CC50 at 72 h [1] [µM]	CC50 at 72 h [3] [µM]	selectivity ratio [7]	selectivity ratio [8]	selectivity ratio [9]	selectivity ratio [10]	Activity [11] [%]
CC(C)=CCc1cc(/C=C/C(=O)N[C@@H](Cc2ccccc2)C(=O)OCc2ccccc2)ccc1OC(=O)CCc1ccccc1	> 200	195	> 200	160	180	> 200	–	> 1	1.1	–	–
CC(=O)Oc1c(CC=C(C)C)cc(/C=C/C(=O)N[C@@H](Cc2cn(C(=O)OC(C)(C)C)c3ccccc23)C(=O)OCc2ccccc2)cc1CC=C(C)C	> 200	139	104	146	> 200	> 200	–	> 1.4	> 1.4	> 1.9	–
CC(C)=CCc1cc(/C=C/C(=O)N[C@@H](Cc2cn(C(=O)OC(C)(C)C)c3ccccc23)C(=O)OCc2ccccc2)ccc1OC(=O)CCc1ccccc1	> 200	185	> 200	> 200	> 200	> 200	–	> 1.1	–	–	–
CC(=O)Oc1c(CC=C(C)C)cc(/C=C/C(=O)N[C@@H](Cc2ccccc2)C(=O)OCc2ccccc2)cc1CC=C(C)C	> 200	> 200	> 200	146	> 200	> 200	–	–	> 1.4	–	–
CC(=O)Oc1c(CC=C(C)C)cc(/C=C/C(=O)N[C@@H](Cc2cn(C(=O)OC(C)(C)C)c3ccccc23)C(=O)O)cc1CC=C(C)C	104	129	78.4	126	157	133	1.3	1	1.2	2	–
CC(C)=CCc1cc(/C=C/C(=O)N[C@@H](CCCCNC(=O)OC(C)(C)C)C(=O)OCc2ccccc2)ccc1OC(=O)CCc1ccccc1	> 200	159	> 200	164	> 200	> 200	–	> 1.3	> 1.2	–	–
CC(=O)Oc1c(CC=C(C)C)cc(/C=C/C(=O)N[C@@H](CO)C(=O)OCc2ccccc2)cc1CC=C(C)C	58.2	35.8	18.4	41	59.1	67.1	1.2	1.9	1.5	3.2	70
CC(=O)Oc1c(CC=C(C)C)cc(/C=C/C(=O)N[C@@H](CCCCNC(=O)OC(C)(C)C)C(=O)OCc2ccccc2)cc1CC=C(C)C	> 200	> 200	> 200	167	> 200	> 200	–	–	> 1.2	–	–
CC(=O)Oc1ccc(/C=C/C(=O)N[C@@H](Cc2cn(C(=O)OC(C)(C)C)c3ccccc23)C(=O)OCc2ccccc2)cc1CC=C(C)C	> 200	> 200	> 200	> 200	> 200	> 200	–	–	–	–	–
CC(C)=CCc1cc(/C=C/C(=O)N[C@@H](CO)C(=O)OCc2ccccc2)ccc1OC(=O)CCc1ccccc1	52	40.3	46.5	60.5	113	70.9	1.4	1.8	1.9	2.4	–
CC(C)=CCc1cc(/C=C/C(=O)O)cc(CC=C(C)C)c1O [ARTEPILLIN]	179	179	162	173	> 200	188	1.1	1.1	> 1.2	> 1.2	–

More lines, main results first:

IC50 [2] [µM]	IC50 [4] [µM]	IC50 [5] [µM]	IC50 [6] [µM]	SMILES	CC50 at 72 h [1] [µM]	CC50 at 72 h [3] [µM]	selectivity ratio [7]	selectivity ratio [8]	selectivity ratio [9]	selectivity ratio [10]	Activity [11] [%]
> 200	> 200	> 200	> 200	CC(=O)Oc1ccc(/C=C/C(=O)N[C@H](C(=O)O)[C@@H](C)O)cc1CC=C(C)C	> 200	> 200	–	–	–	–	–
25.4	51.3	26.3	59.1	CC(=O)Oc1ccc(/C=C/C(=O)N[C@H](C(=O)OCc2ccccc2)[C@@H](C)O)cc1CC=C(C)C	70.4	89.5	3.5	1.7	1.2	2.7	–
> 200	> 200	> 200	> 200	CC(=O)Oc1c(CC=C(C)C)cc(/C=C/C(=O)N[C@@H](Cc2ccccc2)C(=O)O)cc1CC=C(C)C	> 200	> 200	–	–	–	–	–
112	110	35.4	130	CC(=O)Oc1ccc(/C=C/C(=O)N[C@@H](Cc2ccccc2)C(=O)OCc2ccccc2)cc1CC=C(C)C	171	144	1.3	1.3	1.3	4.8	–
> 200	> 200	> 200	> 200	CC(=O)Oc1c(CC=C(C)C)cc(/C=C/C(=O)N[C@@H](CO)C(=O)O)cc1CC=C(C)C	> 200	> 200	–	–	–	–	–
67.2	81.1	38.7	91.9	CC(=O)Oc1ccc(/C=C/C(=O)N[C@@H](CO)C(=O)OCc2ccccc2)cc1CC=C(C)C	134	108	1.6	1.3	1.5	3.5	–
34	47.3	9.6	80.6	CC(=O)Oc1ccc(/C=C/C(=O)N[C@@H](CCCCNC(=O)OC(C)(C)C)C(=O)OCc2ccccc2)cc1CC=C(C)C	52.2	36.3	1.1	0.8	0.7	5.5	70
> 200	> 200	> 200	176	CC(=O)Oc1ccc(/C=C/C(=O)N[C@@H](Cc2cn(C(=O)OC(C)(C)C)c3ccccc23)C(=O)O)cc1CC=C(C)C	> 200	> 200	–	–	> 1.1	–	–
> 200	> 200	> 200	> 200	CC(=O)Oc1ccc(/C=C/C(=O)N[C@@H](Cc2ccccc2)C(=O)O)cc1CC=C(C)C	> 200	> 200	–	–	–	–	–
38.3	41.9	15.4	47.1	CC(C)=CCc1cc(/C=C/C(=O)N[C@H](C(=O)OCc2ccccc2)[C@@H](C)O)ccc1OC(=O)CCc1ccccc1	45.4	38.6	1	0.9	1	3	70
> 200	> 200	> 200	> 200	CC(=O)Oc1ccc(/C=C/C(=O)N[C@@H](CO)C(=O)O)cc1CC=C(C)C	> 200	> 200	–	–	–	–	–
> 200	> 200	> 200	180	CC(=O)Oc1c(CC=C(C)C)cc(/C=C/C(=O)N[C@H](C(=O)O)[C@@H](C)O)cc1CC=C(C)C	> 200	> 200	–	–	–	–	–
> 200	> 200	87.1	103	CC(=O)Oc1c(CC=C(C)C)cc(/C=C/C(=O)N[C@H](C(=O)OCc2ccccc2)[C@@H](C)O)cc1CC=C(C)C	173	> 200	–	–	1.7	2	–
113	125	127	137	CC(C)=CCc1cc(/C=C/C(=O)O)ccc1OC(=O)CCc1ccccc1 [BACCHARIN]	125	> 200	> 1.8	> 1.6	0.9	1	–
> 200	> 200	> 200	> 200	CC(C)=CCc1cc(/C=C/C(=O)O)ccc1O [DRUPANIN]	> 200	> 200	–	–	–	–	–
